Where a name gives a salt, the structure may show the parent alone. Read-outs that look alike come from different tables or passages of the source.
Key:
[1] = Anti-tetrabenazine test (ptosis and sedation), Example 37; type: in vivo, Female albino mice; details: Mus musculus, po
Procedure: Female albino mice were grouped, six per cage. Compounds of formula (I) as the respective salt in saline solution were administered orally, thirty minutes prior to the administration of tetrabenazine, 50 mg/kg, i.p. The animals were scored according to the method of V. G. Vernier, H. M. Hanson and C. A. Stone: Psychosomatic medicine, ch.

in vivo = details: mouse, po, mice, p.o. as salt in saline, deaths within two days
Procedure: Several groups of mice were treated with specific doses of compounds of formula (I) as orally administered salts in saline solution. After treatment of each group with a different dose of a specific compound the number of mice dead in each group within two days was noted. […] The LD50 value is the lethal dose required to kill half of the treated animals.
The procedure was repeated with other groups of mice for other compounds of formula (I).

[2] = tetrabenazine-induced sedation test in the rat (general statements on antidepressant activity); type: in vivo; details: acceptable salts
[3] = ptosis, mice, p.o. as salt in saline, 30 min before tetrabenazine 50 mg/kg i.p., read-out: Anti-depressant activity, approx. ED50 values, p.o., Ptosis
[4] = sedation, mice, p.o. as salt in saline, 30 min before tetrabenazine 50 mg/kg i.p., read-out: Anti-depressant activity, approx. ED50 values, p.o., Sedation

Structure (SMILES) | ED50 [1, 3] [mg/kg] | ED50 [1, 4] [mg/kg] | LD50 at 48 h (in vivo) [mg/kg] | other results
CC(C)CCCC(C)(C)NC(=O)CN [Example 12, hydrogen succinate, 2-amino-N-(1,1,5-trimethylhexyl)acetamide] | ~8 | ~2.5 | – | –
CCCCCC(C)NC(=O)CN.O=C(O)CCC(=O)O (stereo not drawn) [Example 8, hydrogen succinate, 2-Amino-N-(1-methylhexyl)acetamide hydrogen succinate] | ~3.8 | ~2.7 | 500 | –
CC(CC1CCCCC1)NC(=O)CN (racemic) [Example 9, hydrogen fumarate, (±)-2-Amino-N-(2-cyclohexyl)-1-methylethyl)acetamide hydrogen fumarate] | ~6 | ~7.5 | – | –
CC(C)(CC1CCCC1)NC(=O)CN [2-amino-N-(2-cyclopentyl-1,1-dimethylethyl)acetamide] | – | – | – | antidepressant activity in the tetrabenazine-induced sedation test [2]: have shown antidepressant activity
CC1(NC(=O)CN)CCCCCC1 [Example 4, hydrogen oxalate, 2-Amino-N-(1-methylcycloheptyl)acetamide] | ~5 | ~10.6 | 1110 | –
CC(C)CCCC(C)(C)NC(=O)CN [2-amino-N-(1,1,5-trimethylhexyl)acetamide] | – | – | – | antidepressant activity in the tetrabenazine-induced sedation test [2]: have shown antidepressant activity
CCCCCC(C)NC(=O)CN (stereo not drawn) [2-amino-N-(1-methylhexyl)acetamide] | – | – | – | antidepressant activity in the tetrabenazine-induced sedation test [2]: have shown antidepressant activity
CCCCCCC(C)(C)NC(=O)CN [Example 7, hydrogen fumarate, 2-Amino-N-(1,1-dimethylheptyl)acetamide] | – | – | 1000 | –
CC1(NC(=O)CN)CCCCC1 [Example 3, hydrogen oxalate, 2-Amino-N-(1-methylcyclohexyl)acetamide] | ~6.92 | ~5.69 | > 2000 | –
CCCCC(C)(C)NC(=O)CN.O=C(O)C(=O)O [Example 5, hydrogen oxalate, 2-amino-N-(1,1-dimethylpentyl)acetamide hydrogen oxalate] | ~20 | ~10 | 536 | –
CCCC(C)CC(C)(C)NC(=O)CN (stereo not drawn) [Example 6, hydrogen fumarate, 2-amino-N-(1,1,3-trimethylhexyl)acetamide] | ~18.7 | ~9.5 | – | –
CC(C)(CC1CCCC1)NC(=O)CN.CCO.O=C(O)/C=C/C(=O)O [Example 11, hydrogen fumarate, 2-Amino-N-(1,1-dimethyl-2-cyclopentylethyl)acetamide hydrogen fumarate monoethanolate] | – | – | 575 | ED50 ([1]; read-out: Anti-depressant activity, approx. ED50 values, p.o., Ptosis): ~5 mg/kg; ED50 ([1]; read-out: Anti-depressant activity, approx. ED50 values, p.o., Sedation): ~5 mg/kg
CCCCCC(C)(C)NC(=O)CN [Example 2, hydrogen oxalate, 2-amino-N-(1,1-dimethylhexyl)acetamide] | ~3.5 | ~2.3 | – | –
